Read-outs that look alike come from different tables or passages of the source.
Tests used:
[1] = tested on: WT HIV-1 strain (IIIB); experiment: Anti-HIV activity in MT-4 cells, MTT method, WT strain IIIB; assay type: cell-based; conditions: for SI IIIB: selectivity index, ratio of CC50/EC50, strain IIIB
[2] = tested on: HIV-1 K103N+Y181C (RES056); experiment: microbe, parasite or virus in culture; assay type: cell-based; conditions: for EC50: Human immunodeficiency virus 1, MT4, read-out: EC50 RES056; for SI RES056: selectivity index, ratio of CC50/EC50, strain RES056
[3] = in vitro; conditions: human
[4] = tested on: mutant HIV-1 strain L100I; experiment: microbe, parasite or virus in culture; assay type: cell-based; conditions: Human immunodeficiency virus 1, MT4, read-out: EC50 L100I
[5] = tested on: mutant HIV-1 strain K103N; experiment: microbe, parasite or virus in culture; assay type: cell-based; conditions: Human immunodeficiency virus 1, MT4, read-out: EC50 K103N
[6] = tested on: mutant HIV-1 strain Y181C; experiment: microbe, parasite or virus in culture; assay type: cell-based; conditions: Human immunodeficiency virus 1, MT4, read-out: EC50 Y181C
[7] = tested on: mutant HIV-1 strain Y188L; experiment: microbe, parasite or virus in culture; assay type: cell-based; conditions: Human immunodeficiency virus 1, MT4, read-out: EC50 Y188L
[8] = tested on: mutant HIV-1 strain E138K; experiment: microbe, parasite or virus in culture; assay type: cell-based; conditions: Human immunodeficiency virus 1, MT4, read-out: EC50 E138K
[9] = tested on: mutant HIV-1 strain F227L + V106A; experiment: microbe, parasite or virus in culture; assay type: cell-based; conditions: Human immunodeficiency virus 1, MT4, read-out: EC50 F227L + V106A
[10] = Cytotoxicity in mock-infected MT-4 cells, MTT method; conditions: human
[11] = Human immunodeficiency virus 1, MT4, 50% protection of MT-4 cell cultures against HIV-1-induced cytopathic effect, MTT method, strain IIIB, read-out: EC50 IIIB

Row | SMILES | EC50 [1, 11] [nM] | SI IIIB [1] | EC50 [2] [nM] | SI RES056 [2] | CC50 at 5 days [3] [nM] | EC50 [4] [nM] | EC50 [5] [nM] | EC50 [6] [nM] | EC50 [7] [nM] | EC50 [8] [nM] | EC50 [9] [nM] | EC50 ([1]; Human immunodeficiency virus 1, IIIB, MT4, read-out: EC50 IIIB) [nM] | CC50 at 5 days [10] [nM]
1 | Cc1cc(C#N)cc(C)c1Oc1nc(NC2CCN(Cc3ccc([N+](=O)[O-])cc3)CC2)nc2ncsc12 [SZ8, 3,5-dimethyl-4-((5-((1-(4-nitrobenzyl)piperidin-4-yl)amino)thiazolo[4,5-d]pyrimidin-7-yl)oxy)benzonitrile] | 3.4 ± 0.2 | 1482 | 129 ± 4.5 | 40 | 5170 ± 134 |  |  |  |  |  |  |  | 
2 | Cc1cc(C#N)cc(C)c1Oc1nc(NC2CCN(Cc3ccc(S(N)(=O)=O)cc3)CC2)nc2scnc12 [TZ1] | 1.6 ± 0.2 | 14194 | 18.3 ± 2.3 | 1265 | 23200 ± 1750 | 9.6 ± 1.5 | 1.9 ± 0.1 | 6.5 ± 1 | 10.8 ± 0.6 | 7.9 ± 0.1 | 16 ± 4.6 |  | 
3 | Cc1cc(C#N)cc(C)c1Oc1nc(NC2CCN(Cc3cccc(C(N)=O)c3)CC2)nc2ncsc12 [SZ9] | 1.3 | 20099 | 559 ± 8.5 | 49 | 27300 ± 965 |  |  |  |  |  |  |  | 
4 | Cc1cc(C#N)cc(C)c1Oc1nc(Nc2ccc(C#N)cc2)nc(N)c1Br [ETR, Etravirine, reference compound] | 5.1 ± 0.8 |  | 45.4 ± 15.5 |  | > 4590 | 6 ± 1.5 |  | 14.5 ± 8.2 | 20.4 ± 8.6 | 9.7 ± 6.9 | 19.7 ± 7.3 |  | 
5 | Cc1cc(C#N)cc(C)c1Oc1nc(NC2CCN(Cc3cccc(C(N)=O)c3)CC2)nc2scnc12 [TZ6] | 3 ± 0.6 | 9565 | 222 ± 47 | 130 | 28800 ± 634 |  |  |  |  |  |  |  | 
6 | Cc1cc(C#N)cc(C)c1Oc1nc(NC2CCN(Cc3ccc(C(N)=O)cc3)CC2)nc2ncsc12 [SZ5] | > 15600 | <1 | > 15600 | <1 | 15500 ± 2840 |  |  |  |  |  |  |  | 
7 | Cc1cc(C#N)cc(C)c1Oc1nc(NC2CCN(Cc3ccncc3)CC2)nc2scnc12 [TZ4, 3,5-dimethyl-4-((5-((1-(pyridin-4-ylmethyl)piperidin-4-yl)amino)thiazolo[5,4-d]pyrimidin-7-yl)oxy)benzonitrile] | 2.7 | 10447 | 26.8 ± 0.1 | 1074 | 28700 ± 489 | 13.7 ± 7.1 | 3.3 ± 2.3 | 5.8 ± 0.1 | 6.6 ± 1 | 6.5 ± 0.3 | 30.9 ± 6.2 |  | 
8 | Cc1cc(C#N)cc(C)c1Oc1nc(NC2CCN(Cc3ccncc3)CC2)nc2ncsc12 [SZ7, 3,5-dimethyl-4-((5-((1-(pyridin-4-ylmethyl)piperidin-4-yl)amino)thiazolo[4,5-d]pyrimidin-7-yl)oxy)benzonitrile] | 1.8 ± 0.4 | 16818 | 24.7 ± 1.9 | 1227 | 30300 ± 760 | 5.6 ± 2.2 | 1.9 ± 0.6 | 5.8 ± 2.2 | 7.7 ± 1 | 5.5 ± 1.2 | 32.9 ± 23.8 |  | 
9 | Cc1cc(C#N)cc(C)c1Oc1nc(NC2CCN(Cc3ccc(S(C)(=O)=O)cc3)CC2)nc2scnc12 [TZ3, 3,5-dimethyl-4-((5-((1-(4-(methylsulfonyl)benzyl)piperidin-4-yl)amino)thiazolo[5,4-d]pyrimidin-7-yl)oxy)benzonitrile] | 2.3 ± 0.7 | 6212 | 18.1 ± 1.1 | 791 | 14300 ± 5500 | 5.6 ± 0.7 | 3.3 ± 0.3 | 7.5 ± 0.6 | 7.1 ± 0.2 | 6.6 ± 0.1 | 15.2 ± 3.4 |  | 
10 | Cc1cc(C#N)cc(C)c1Oc1nc(NC2CCN(Cc3ccc(S(=O)(=O)NC4CC4)cc3)CC2)nc2ncsc12 [SZ3] | 5 ± 0.2 | 4564 | 41.3 ± 5.2 | 561 | 23200 ± 4520 |  |  |  |  |  |  |  | 
11 | Cc1ccnc2c1NC(=O)c1cccnc1N2C1CC1 [NVP, Nevirapine, reference compound] |  |  | > 9510 |  |  |  |  |  |  |  |  | 163 ± 41.2 | > 9510
12 | Cc1cc(C#N)cc(C)c1Oc1nc(NC2CCN(Cc3ccc(C(N)=O)cc3)CC2)nc2scnc12 [TZ2] | 1.6 ± 0.1 | 16412 | 28.1 ± 13 | 965 | 27100 ± 1300 | 6.3 ± 2.8 | 1.6 ± 0.4 | 5.1 ± 0.1 | 7.2 ± 0.2 | 5.2 ± 0.8 | 20.3 ± 2.6 |  | 
13 | Cc1cc(C#N)cc(C)c1Oc1nc(NC2CCN(Cc3ccc(S(=O)(=O)N4CCOCC4)cc3)CC2)nc2ncsc12 [SZ4] | 3.7 ± 0.8 | 4665 | 94.4 ± 0.5 | 187 | 17600 ± 2370 |  |  |  |  |  |  |  | 
14 | Cc1cc(C#N)cc(C)c1Oc1nc(NC2CCN(Cc3ccc(S(N)(=O)=O)cc3)CC2)nc2ncsc12 [SZ1] | 2.2 ± 0.9 | 11071 | 26.1 ± 1.5 | 961 | 25100 ± 749 | 7.8 ± 0.2 | 3.9 ± 1.9 | 6.7 ± 1.2 | 11.4 ± 2.3 | 6.5 ± 1.5 | 18.8 ± 4.5 |  | 
15 | Cc1cc(C#N)cc(C)c1Oc1nc(NC2CCN(Cc3ccc([N+](=O)[O-])cc3)CC2)nc2scnc12 [TZ5, 3,5-dimethyl-4-((5-((1-(4-nitrobenzyl)piperidin-4-yl)amino)thiazolo[5,4-d]pyrimidin-7-yl)oxy)benzonitrile] | 8.2 ± 1.9 | 687 | 126 ± 16 | 45 | 5680 ± 423 |  |  |  |  |  |  |  | 
16 | CNS(=O)(=O)c1ccc(CN2CCC(Nc3nc(Oc4c(C)cc(C#N)cc4C)c4scnc4n3)CC2)cc1 [SZ2] | 4.8 ± 0.1 | 2828 | 19.4 ± 13.1 | 710 | 13700 ± 3470 | 8.7 ± 0.3 | 5.1 ± 1 | 7.3 ± 0.1 | 14 ± 2 | 9.2 ± 0.7 | 22.6 ± 3.8 |  | 
17 | Cc1cc(C#N)cc(C)c1Oc1nc(NC2CCN(Cc3ccc(S(C)(=O)=O)cc3)CC2)nc2ncsc12 [SZ6, 3,5-dimethyl-4-((5-((1-(4-(methylsulfonyl)benzyl)piperidin-4-yl)amino)thiazolo[4,5-d]pyrimidin-7-yl)oxy)benzonitrile] | 2.2 ± 0.6 | 4816 | 27.4 ± 0.3 | 400 | 10900 ± 2750 | 3.2 ± 0.7 | 3.8 ± 2.8 | 7 ± 0.9 | 10.7 | 6.1 ± 1.1 | 15.4 ± 2.3 |  | 

— US11225491B2, “Thiazolo-pyrimidine HIV-1 reverse transcriptase inhibitor, preparation method therefor, and uses thereof” (priority 2018, dated 2022)
